Reference: patent US20230256095A1, “DYES FOR USE IN A METHOD OF TREATMENT OF VITREOUS OPACITY-RELATED DISEASES” (UNIVERSITEIT GENT, priority 2020, published 2023)

Assays:
[1] = tested on: immortalized human Müller cells (MIO-M1); assay: MTT toxicity assay on Müller cells; assay type: cell-based
Experimental: MIO-M1 cells were cultured in DMEM Glutamax medium (Thermo Fisher Scientific, Waltham, USA). The medium contained 10% foetal bovine serum (FBS) (Thermo Fisher Scientific, Waltham, USA), 100 IU/ml penicillin (Gibco®-Invitrogen life technologies, Walthan, USA), 100 μg/ml streptomycin (Gibco®-Invitrogen life technologies, Walthan, USA) and 2 mM L-Glutamin (Gibco®-Invitrogen life technologies, Walthan, USA). Before use, the medium was passed through a 0.2 μm PES membrane vacuum filter (VWR, Radnor, USA). The cells were plated in polystyrene cell culture flasks (surface=75 cm^2) (VWR, Radnor, USA) and placed in the incubator (37° C., 5% CO2) (Thermo Fisher Scientific, Waltham, USA) until confluence was reached (i.e. the cells forming a monolayer covering 80%-90% of the culture flask). The morphology was checked by microscopy (VWR, Radnor, USA). After reaching the confluence (more or less after 5 days) and checking the morphology, cells were split in new culture flasks. […]
To test the toxicity of free and nano-encapsulated ICG, we wanted to seed 7,000 Müller cells in each well of a 96-well plate (VWR, Radnor, USA). The cells were counted with a Bürker counting chamber (BRAND, Wertheim, Germany) to obtain the proper number of cells. […] The non-coloured cells were counted in 6 big squares (3 on each side of the chamber); each big square contained 0.1 μL mixture. […]

[2] = biological target: T1, type I collagen fibers (Rattus norvegicus, UniProt P02454+P02466); assay: Photo-ablation of artificial floaters with nanosecond laser
T1 construct: type I collagen from the rat tail; purchased GIBCO; host or cells: rat tail (tissue-derived)
Experimental: Collagen fibers were prepared from type I collagen from the rat tail (GIBCO; concentration of 3 mg/ml) as described in Sauvage et al., 2019, ACS Nano, 13, 8401-8416. 5 ml of PBS was pipetted in a 15 ml falcon tube. 330 μL of the PBS solution was replaced by 330 μL collagen type I and the solution was vortexed. Sodium hydroxide (0.1 M) (VWR, Radnor, USA) was added to the acid solution of collagen to adjust pH to 7.4. The solution was vortexed again and placed for one hour in the incubator at 37° C. The final concentration of the collagen was 0.2 mg/ml.
First, dark-field microscopy imaging was performed to locate and align the nanosecond laser (Opolette HE 355 LD, OPOTEK Inc., CA, USA) on the artificial collagen fibers in the sample. Samples of either artificial or human opacities treated with TB, ICG and ICG nanoparticles were then illuminated with the laser (<7 ns). The wavelength of the laser light was 561 nm and the energy was set at ±800 μJ. A beam expander (#GBE05-A, Thorlabs) combined with iris diaphragm (#D37SZ, Thorlabs) were used to adjust the diameter of the laser beam to 150 μm (so that 800 μJ corresponded to a laser fluence of 4.5 J/cm^2). The laser pulse energy was monitored by an energy meter (J-25 MB-HE&LE, Energy Max-USB/RS sensors, Coherent) synchronized with the pulsed-laser. The set-up was made in such way to illuminate the sample shot by shot. Videos of the sample were made during illumination with NIS software. Same experiments were performed with human opacities Comparison Between Free ICG, PAH-ICG NPs and HSA-ICG NPs in Water and Bovine Vitreous.

[3] = tested on: human vitreous opacities; assay: Photo-ablation of human vitreous opacities obtained after vitrectomy; settings: 0.5 mg/ml

T1 sequence (P02454 152-1207 limits assumed): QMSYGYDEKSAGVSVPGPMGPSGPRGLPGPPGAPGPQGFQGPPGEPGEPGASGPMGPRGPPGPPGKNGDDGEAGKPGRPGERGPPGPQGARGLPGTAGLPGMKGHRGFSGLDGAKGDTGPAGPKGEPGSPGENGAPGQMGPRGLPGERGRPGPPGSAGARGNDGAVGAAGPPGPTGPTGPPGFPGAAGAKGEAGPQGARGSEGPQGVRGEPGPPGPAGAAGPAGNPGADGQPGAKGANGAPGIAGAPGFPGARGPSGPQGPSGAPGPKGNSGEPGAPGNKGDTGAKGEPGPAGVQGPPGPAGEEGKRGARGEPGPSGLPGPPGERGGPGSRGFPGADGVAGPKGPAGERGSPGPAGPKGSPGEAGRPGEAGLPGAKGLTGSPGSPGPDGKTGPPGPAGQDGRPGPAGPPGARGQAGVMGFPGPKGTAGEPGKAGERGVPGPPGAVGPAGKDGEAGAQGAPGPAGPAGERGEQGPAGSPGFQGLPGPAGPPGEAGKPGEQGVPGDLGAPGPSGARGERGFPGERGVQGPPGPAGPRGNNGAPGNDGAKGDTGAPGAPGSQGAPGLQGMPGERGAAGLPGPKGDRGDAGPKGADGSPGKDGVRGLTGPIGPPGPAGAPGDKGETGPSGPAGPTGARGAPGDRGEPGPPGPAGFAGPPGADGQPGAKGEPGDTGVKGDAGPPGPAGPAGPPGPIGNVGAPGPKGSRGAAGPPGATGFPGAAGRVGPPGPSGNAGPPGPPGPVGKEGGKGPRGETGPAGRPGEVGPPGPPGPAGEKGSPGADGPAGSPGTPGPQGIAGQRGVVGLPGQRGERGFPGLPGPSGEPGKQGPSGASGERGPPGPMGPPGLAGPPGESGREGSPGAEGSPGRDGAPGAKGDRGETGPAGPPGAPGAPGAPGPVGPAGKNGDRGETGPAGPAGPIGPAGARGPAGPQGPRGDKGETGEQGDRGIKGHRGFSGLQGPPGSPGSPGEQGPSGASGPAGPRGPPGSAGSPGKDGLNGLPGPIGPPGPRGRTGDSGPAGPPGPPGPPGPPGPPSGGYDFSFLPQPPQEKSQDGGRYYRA
T1 sequence (P02466 86-1125 limits assumed): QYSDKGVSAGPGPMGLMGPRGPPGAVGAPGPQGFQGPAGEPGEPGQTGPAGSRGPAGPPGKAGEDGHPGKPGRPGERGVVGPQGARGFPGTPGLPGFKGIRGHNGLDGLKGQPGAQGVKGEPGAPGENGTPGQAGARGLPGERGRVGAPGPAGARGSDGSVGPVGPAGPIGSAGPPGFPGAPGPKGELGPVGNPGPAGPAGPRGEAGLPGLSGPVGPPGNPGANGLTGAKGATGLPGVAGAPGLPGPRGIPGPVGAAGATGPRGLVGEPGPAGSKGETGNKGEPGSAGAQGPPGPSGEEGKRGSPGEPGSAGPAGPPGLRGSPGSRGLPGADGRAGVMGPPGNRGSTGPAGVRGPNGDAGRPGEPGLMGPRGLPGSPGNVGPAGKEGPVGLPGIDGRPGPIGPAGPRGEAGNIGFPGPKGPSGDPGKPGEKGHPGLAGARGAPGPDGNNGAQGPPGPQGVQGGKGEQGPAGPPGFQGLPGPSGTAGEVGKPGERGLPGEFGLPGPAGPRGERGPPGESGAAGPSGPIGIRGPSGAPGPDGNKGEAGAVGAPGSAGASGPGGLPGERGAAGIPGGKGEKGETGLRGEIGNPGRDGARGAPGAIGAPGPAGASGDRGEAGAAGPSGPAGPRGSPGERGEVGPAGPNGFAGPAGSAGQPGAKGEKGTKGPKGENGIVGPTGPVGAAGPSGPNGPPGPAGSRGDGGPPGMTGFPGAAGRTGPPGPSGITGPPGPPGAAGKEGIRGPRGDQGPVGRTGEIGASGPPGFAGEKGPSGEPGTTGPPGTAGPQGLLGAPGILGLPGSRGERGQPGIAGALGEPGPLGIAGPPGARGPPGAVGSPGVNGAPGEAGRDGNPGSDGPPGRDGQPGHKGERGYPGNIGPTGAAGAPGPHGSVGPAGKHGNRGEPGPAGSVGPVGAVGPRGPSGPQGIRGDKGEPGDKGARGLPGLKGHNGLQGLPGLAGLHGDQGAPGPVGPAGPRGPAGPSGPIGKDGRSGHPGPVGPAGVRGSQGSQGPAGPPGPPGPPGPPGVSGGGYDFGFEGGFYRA

**Q.** How did the “toxicity on immortalized human retinal cells (MIO-M1)” value ([1]; 0.5 mg/ml) turn out when `CC1(C)C(/C=C/C=C/C=C/C=C2\N(CCCCS(=O)(=O)O)c3ccc4ccccc4c3C2(C)C)=[N+](CCCCS(=O)(=O)[O-])c2ccc3ccccc3c21` [ICG, Indocyanine Green] was run?
**A.** The value was “no clear toxicity”.

**Q.** And the “toxicity / metabolic activity (MTT)” value ([1]; 24 hours, 0.1-1 mg/ml)?
**A.** The value was “rather acceptable toxicity up to a concentration of 0.5 mg/ml”.

**Q.** What about the “binding and destruction of type I collagen fibers” value ([2]; 0.5 mg/ml) of the same compound?
**A.** The value was “can bind and efficiently destroy type I collagen fibers”.

**Q.** What about the “location of VNBs during laser pulse on fiber” value ([2]; nanosecond laser 4.5 J/cm^2) of the same compound?
**A.** The value was “VNBs could be observed at the level of the fiber”.

**Q.** And the “destruction of human vitreous opacity” value ([3]; 561 nm, 4.5 J/cm^2)?
**A.** Its value is “the vitreous opacity could be destroyed”.

**Q.** And the “destruction of human vitreous opacity” value ([3]; 800 nm, 1.1 J/cm^2)?
**A.** Its value is “the vitreous opacity could be destroyed”.
